In brackets after ≈: the same amount, converted by molar mass. Like-named read-outs stand apart in the source and are kept apart here.
Tests used:
Format in all cases: cell-based
[1] = test system: Staphylococcus aureus ATCC 29213; assay: Broth micro dilution assay for MIC and MBC; details: S. aureus ATCC 29213
Experimental: All bacteria were grown on blood agar plates (Colombia agar-CM331, Oxoid Limited, Basingstoke, Hampshire, United Kingdom) supplemented with 5% v/v sheep blood) at 37° C. The Streptococcus species were incubated at 37° C. in the presence of 5% carbon dioxide (CO2).
Duplicate two-fold serial dilutions of test sample (100 μL/well) were prepared in sterile round-bottom 96-well plates (Sarstedt Australia Pty Ltd, Technology Park, SA, Australia), in the appropriate broth containing 2% DMSO. Bacterial cell suspension (100 μL) corresponding to 1×10^6 CFU/mL was added in all wells with the exception of wells containing saline, test sample and media sterility controls, respectively. Controls for bacterial growth without test sample were also included on each plate. Plates were then placed on a shaker for 10 min and incubated at 37° C. overnight. […] Vancomycin and gentamicin (Sigma, St Louis, Mo., United States of America) were used as positive controls for the Gram-positive and Gram-negative bacteria, respectively. Following the determination of the MIC, the MBC was determined by transferring a 10 μL aliquot from each of the wells at the concentration corresponding to the MIC and those concentrations above into 190 μL of appropriate broth in a sterile 96-well plate. […] The presence or absence of bacterial growth was determined by visual inspection. The MBC was considered to be the lowest concentration of the compound at which no growth occurred.

[2] = test system: Gram-positive bacteria including S. aureus, S. pyogenes and S. pneumoniae; assay: Broth micro dilution assay, Gram-positive bacteria; details: for antimicrobial activity against other Gram-positive bacteria: S. aureus (ATCC 25925), S. pyogenes, S. pneumoniae, values not shown
Experimental: (§1) Staphylococcus aureus ATCC 29213 obtained from stock cultures stored at −70° C. at the Sansom Institute (University of South Australia, Adelaide, SA, Australia) was used as the test microorganism in a bioassay guided fractionation process. […] All bacteria were grown on blood agar plates (Colombia agar-CM331, Oxoid Limited, Basingstoke, Hampshire, United Kingdom) supplemented with 5% v/v sheep blood) at 37° C. The Streptococcus species were incubated at 37° C. in the presence of 5% carbon dioxide (CO2). Brain Heart Infusion broth (CM 225, Oxoid Limited) was used for the experiments to determine the minimum inhibitory concentration (MIC) and minimum bactericidal concentration (MBC) for the Streptococcus species while cation adjusted MH II broth (Becton Dickinson France SAS, Le Point de Claix, France) was used for the Staphylococcus species and the Gram-negative bacteria tested.
(§2) Broth micro dilution was used to determine the MIC of extract, fractions and pure compounds against S. aureus ATCC 29213. Duplicate two-fold serial dilutions of test sample (100 μL/well) were prepared in sterile round-bottom 96-well plates (Sarstedt Australia Pty Ltd, Technology Park, SA, Australia), in the appropriate broth containing 2% DMSO. Bacterial cell suspension (100 μL) corresponding to 1×10^6 CFU/mL was added in all wells with the exception of wells containing saline, test sample and media sterility controls, respectively. Controls for bacterial growth without test sample were also included on each plate. Plates were then placed on a shaker for 10 min and incubated at 37° C. overnight. […] Vancomycin and gentamicin (Sigma, St Louis, Mo., United States of America) were used as positive controls for the Gram-positive and Gram-negative bacteria, respectively. Following the determination of the MIC, the MBC was determined by transferring a 10 μL aliquot from each of the wells at the concentration corresponding to the MIC and those concentrations above into 190 μL of appropriate broth in a sterile 96-well plate. The plates were incubated under the same conditions as in the MIC experiment with the Streptococcus species incubated in the presence of 5% CO2. The presence or absence of bacterial growth was determined by visual inspection. The MBC was considered to be the lowest concentration of the compound at which no growth occurred.

[3] = test system: Staphylococcus aureus ATCC 25923; assay: Broth micro dilution assay for MIC and MBC; details: ATCC25923, S. aureus ATCC 25923
Experimental: as §1, §2

[4] = test system: Streptococcus pneumoniae ATCC 49619; assay: Broth micro dilution assay for MIC and MBC; details: ATCC49619, S. pneumoniae ATCC 49619
Experimental: as §1, §2

[5] = test system: Escherichia coli ATCC 25922; assay: Broth micro dilution assay for MIC and MBC; details: ATCC25922, E. coli ATCC 25922, maximum concentration tested 250 μg/mL
Experimental: as §1, §2

[6] = test system: Streptococcus pyogenes ATCC 10389; assay: Broth micro dilution assay for MIC and MBC; details: ATCC10389, S. pyogenes ATCC 10389
Experimental: as §1, §2

[7] = test system: Pseudomonas aeruginosa ATCC 27853; assay: Broth micro dilution assay for MIC and MBC; details: ATCC27853, P. aeruginosa ATCC 27853, maximum concentration tested 250 μg/mL
Experimental: as §1, §2

[8] = test system: Salmonella typhimurium ATCC 13311; assay: Broth micro dilution assay for MIC and MBC; details: Salmonella enterica; S. typhimurium ATCC 13311; maximum concentration tested 250 μg/mL
Experimental: as §1, §2

[9] = test system: Gram-negative bacteria tested; assay: Broth micro dilution assay, Gram-negative bacteria; details: all Gram-negative bacteria tested, maximum concentrations tested
Experimental: as §1
Broth micro dilution was used to determine the MIC of extract, fractions and pure compounds against S. aureus ATCC 29213. […] Following the determination of the MIC, the MBC was determined by transferring a 10 μL aliquot from each of the wells at the concentration corresponding to the MIC and those concentrations above into 190 μL of appropriate broth in a sterile 96-well plate. […] The presence or absence of bacterial growth was determined by visual inspection. […]

[10] = range over Gram-positive bacteria of Table 2

Question: “8,20-diacetoxyserrulat-14-en-19-oic acid [Compound 5]” was tested. Which MIC [1] did it give?
Answer: The MIC was 250 µg/mL.

Question: How did the MIC [1] turn out when “8,20-dihydroxyserrulat-14-en-19-oic acid [Compound 4]” was run?
Answer: Its MIC is 250 µg/mL.

Question: With CC(C)=CCCC1COC2=C(C)C(=O)C(=O)c3cccc1c32 (stereo not shown) [Compound 2, 9-methyl-3-(4-methyl-3-pentenyl)-2,3-dihydronaphtho[1,8-bc]pyran-7,8-dione] as the molecule, how does the MBC ([1]; Staphylococcus aureus, ATCC29213) read?
Answer: Its MBC is 125 µg/mL (≈ 422 µM).

Question: And the MIC ([1]; Staphylococcus aureus, ATCC29213, read-out: MIC)?
Answer: Its MIC is 15.6 µg/mL (≈ 52.6 µM).

Question: What about the MBC [2, 10] of the same molecule?
Answer: Its MBC is 7.8 to 125 µg/mL (≈ 26.3 to 422 µM).

Question: What about the MIC [2, 10] of the same molecule?
Answer: Its MIC is 7.8 to 15.6 µg/mL (≈ 26.3 to 52.6 µM).

Question: And the MBC [3]?
Answer: The MBC was 15.6 µg/mL (≈ 52.6 µM).

Question: What about the MIC [3] of the same molecule?
Answer: The MIC was 7.8 µg/mL (≈ 26.3 µM).

Question: And the MBC [4]?
Answer: The MBC was 7.8 µg/mL (≈ 26.3 µM).

Question: And the MIC [4]?
Answer: The MIC was 7.8 µg/mL (≈ 26.3 µM).

Question: What about the MBC [5] of the same molecule?
Answer: The MBC was over 250 µg/mL.

Question: What about the MIC [5] of the same molecule?
Answer: The MIC was over 250 µg/mL.

Question: And the MBC [6]?
Answer: The MBC was 15.6 µg/mL (≈ 52.6 µM).

Question: What about the MIC [6] of the same molecule?
Answer: The MIC was 7.8 µg/mL (≈ 26.3 µM).

Question: And the MBC [7]?
Answer: The MBC was over 250 µg/mL.

Question: What about the MIC [7] of the same molecule?
Answer: The MIC was over 250 µg/mL.

Question: And the MBC [8]?
Answer: Its MBC is over 250 µg/mL.

Question: What about the MIC [8] of the same molecule?
Answer: The MIC was over 250 µg/mL.

Question: And the “activity against Gram-negative bacteria” value [9]?
Answer: Its value is “Activity was not observed”.

Question: CC(=O)OCC(CCC=C(C)C)C1CCC(C)c2ccc(C(=O)O)c(O)c21 (stereo not shown) [Compound 3, 20-acetoxy-8-hydroxyserrulat-14-en-19-oic acid] was tested. Which MIC [1] did it give?
Answer: Its MIC is 125 µg/mL (≈ 334 µM).

Question: With CC(C)=CCCC(C)C1CCC(C)c2cc(CO)c(O)cc21 (stereo not shown) [Compound 7, 8,19-dihydroxyserrulat-14-ene] as the molecule, how does the “antimicrobial activity against other Gram-positive bacteria” value [2] read?
Answer: Its value is “showed antimicrobial activity”.

Question: How did the “antimicrobial activity against other Gram-positive bacteria” value [2] turn out when CC(C)=CCCC(C)C1CCC(C)c2cc(C(=O)O)c(O)cc21 (stereo not shown) [Compound 8, 8-hydroxyserrulat-14-en-19-oic acid] was run?
Answer: The value was “showed antimicrobial activity”.

From patent publication US20100311912A1, “ANTIMICROBIAL SURFACES” (priority 2008, published 2010)
